From patent publication US9655865B2, “Therapeutic treatment for metabolic syndrome, type 2 diabetes, obesity, or prediabetes” (VeroScience, LLC, priority 2002, dated 2017)

Tests used:
[1] = test system: mice fed a high fat diet for 20 weeks; experiment: Bromocriptine and GBR 12909, alone and combined, in high fat diet mice (Example 12); type: in vivo; details: bromocriptine 5 mg/kg, GBR 12909 5 mg/kg
Procedure: The effects of adding GBR (a selective dopamine reuptake inhibitor) to bromocriptine (a dopamine D2 receptor agonist that can reduce central norepinephrine neuronal activity) in an effort to circumvent the impact of the D2 receptor agonist effect to reduce endogenous dopamine and to therefore improve metabolic disorders was examined in mice fed a high fat diet for 20 weeks and then treated with either vehicle, bromocriptine (BC) (5 mg/kg), GBR 12909 (5 mg/kg) or bromocriptine (5 mg/kg) plus GBR 12909 (5 mg/kg). […] Again, increasing central dopaminergic neuronal activity and decreasing central norepinephrine neuronal activity simultaneously produces synergistic reductions in metabolic disorders. […] BC alone had no effect on plasma insulin level (FIG. 21).

[2] = test system: Female ob/ob obese diabetic mice; experiment: Bromocriptine and GBR 12909, alone and combined, 14 days in ob/ob mice (Example 8); type: in vivo; details: bromocriptine 10 mg/kg, GBR 12909 20 mg/kg, daily 14 days, FIG. 10
Procedure: The effects of adding GBR (a selective dopamine reuptake inhibitor) to bromocriptine (a dopamine D2 receptor agonist that can reduce central norepinephrine neuronal activity) in an effort to circumvent the impact of the D2 receptor agonist effect to reduce endogenous dopamine and to therefore improve metabolic disorders was examined in ob/ob mice treated with either vehicle, bromocriptine (BC) (10 mg/kg), GBR 12909 (20 mg/kg) or bromocriptine (10 mg/kg) plus GBR 12909 (20 mg/kg). Female ob/ob obese diabetic mice were fed standard chow and different groups of animals (n=5-7 group) were treated daily for 14 days with bromocriptine (to reduce norepinephrine neuronal activity) (10 mg/kg), GBR 12909 (to increase dopaminergic neuronal activity) (20 mg/kg) or with bromocriptine (10 mg/kg) plus GBR 12909 (20 mg/kg), or vehicle. […] BC had no effect on blood glucose level. The BC/GBR effect on blood glucose level was more than additive of the individual effects of BC and GBR combined (FIG. 10)

With `CC(C)C[C@H]1C(=O)N2CCC[C@H]2[C@]2(O)O[C@](NC(=O)[C@@H]3C=C4c5cccc6[nH]c(Br)c(c56)C[C@H]4N(C)C3)(C(C)C)C(=O)N12` [bromocriptine] the plasma insulin level ([1]; FIG. 21) was “no effect”, the “HOMA-IR (insulin resistance)” value ([1]; FIG. 22) was “no significant effect” and the blood glucose level [2] was “no effect”.
